Laboratory results published in patent publication US10344065B2, “Method for treating Alzheimer's disease and method for downregulating protein aggregation in brain” (National Cheng Kung University, priority 2017, dated 2019).
Residues, ends and D or L forms follow the SMILES beside them. *: point of attachment. Cbz = O=C(OCc1ccccc1)*

Key:
MCF7 cell lysates = assay: Zfration and degradation of proteins in MCF7 cell lysates; assay type: biochemical, human
Procedure: (§1) Aliquots of Zfra-deficient breast MCF7 cell lysates (100 μg) were incubated with Zfra (100 μM) for various durations in the presence or absence of proteasome inhibitor MG-132 (50 μM). Zfra formed complexes with cytosolic proteins (or zfrated; see arrows), and disappeared with time even in the presence of MG-132. (B and C) Zfra-negative prostate DU145 cells were exposed to UV (160-720 mJ/cm^2), and aliquots of whole cell lysates (100 μg) were incubated with Zfra peptide (100 μM) for various durations (in PBS) at 37° C., in the presence of a cocktail of protease inhibitors (1:10 dilution). Zfrated proteins (70, 72, 200 kDa and minor band ladders) and exogenous Zfra peptide were degraded with time (>99% in 120 minutes; reducing SDS-PAGE). Synthetic Zfra was in PBS at the first lane at the left, and in Milli-Q water at the last lane at the right. Zfra-free control lysates had only less than 10% degradation of total proteins after incubation for 120 minutes, in the presence of protease inhibitors (data not shown). In the diagram of FIG. 6C, at each time points, the left bar is cell lysates, and the right bar is Zfra peptide. (D) L929 cell lysates (100 μg) were incubated with Zfra peptide (100 μM) for 30 minutes at 37° C. (in PBS). A 30-kDa protein was zfrated in 30 minutes, and 22- and 80-kDa protein was zfrated rapidly and then degraded in 30 minutes (reducing SDS-PAGE). *A nonspecific immunoreactive or a zfrated protein in L929 cells. (E) Zfra peptide (100 μM) bound recombinant His-Tau (2 μg protein) in PBS for 24 hours at room temperature, and the resulting complex resisted dissociation by reducing SDS-PAGE. Abbreviation: Zfra, zinc finger-like protein that regulates apoptosis.
To continue to investigate how Zfra reduces protein aggregation in vivo, we examined whether Zfra interacts with cytosolic proteins and accelerates protein degradation. Zfra peptide at high concentrations may undergo self-polymerization especially in PBS. […] Zfra-deficient human breast MCF7 cells were used. […]

[1] = tested on: pyramidal neurons in the hippocampi; assay: Melanoma B16F10-induced neurodegeneration in nude mice; assay type: in vivo, mouse; details: nude mice, B16F10; data not shown
Procedure: FIG. 4 includes photos showing that Zfra suppresses melanoma B16F10-mediated neurodegeneration in the hippocampus. Nude mice were preinjected with 100 μL, of sterile Milli-Q water or Zfra4-10 (1 mM in sterile water) in 3 consecutive weeks. After treatment for a week, these mice were inoculated with melanoma B16F10 cells on both flanks (2×10^5 cells in 100-μL, PBS). Mice were sacrificed when the tumor sizes grew up to 2000-3000 mm^3 in about a month. (A) Zfra blocked neurodegeneration in the hippocampus (top panel) and prevented the formation of TPC6AΔ plaques in the cortex (bottom panel), which negatively correlates with pS14-WWOX expression. Note the presence of condensed apoptotic nuclei in the hippocampal neurons in the control mice, (B) Metastasis of B16F10 cells to the lung was blocked in Zfra-treated mice. Compared to controls, Zfra suppressed p-S14WWOX expression in the lung by ˜72% suppression (three sections). […] (C and D) The non-spatial learning and memory were determined by novel object recognition task for both 3×Tg and Wwox+/− mice. […]
Six- to eight-week-old male nude (BALB/cAnN.Cg-Foxn1^nu/CrlNarl) mice (National Laboratory Animal Center, Taiwan) were used. […] Tumor volumes were measured daily and calculated using the equation, D×(d)^2/2, where D and d are the major and minor diameters, respectively. […] Z-cell distribution in organs was determined under fluorescence microscopy.

L929 cell lysates = assay: Zfration and degradation of proteins in L929 cell lysates; assay type: biochemical, murine
Procedure: as §1, with “A 30-kDa protein was zfrated in 30 minutes, and 22- and 80-kDa protein was zfrated rapidly and then degraded in 30 minutes (reducing SDS-PAGE). *A nonspecific immunoreactive or a zfrated protein in L929 cells. (E) Zfra peptide (100 μM) bound recombinant His-Tau (2 μg protein) in PBS for 24 hours at room temperature, and the resulting complex resisted dissociation by reducing SDS-PAGE. Abbreviation: Zfra, zinc finger-like protein that regulates apoptosis.” left out

[2] = Self-polymerization of Zfra peptide in PBS (reducing SDS-PAGE); assay type: physicochemical; details: >1 mM in PBS; molecular sizes from 3.5 kDa up to 78 and 80 kDa
Aβ42 = target: T1, Aβ42 (Homo sapiens, UniProt P05067); assay: Aβ42 aggregation in vitro (SDS-PAGE); assay type: biochemical; details: 100 μM each peptide, room temperature, 24 hours or less
T1 construct: purchased AnaSpec
T1 sequence (P05067 672-713): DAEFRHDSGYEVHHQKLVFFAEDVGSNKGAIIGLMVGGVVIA
From the text: FIG. 5 includes photos and diagrams showing that Zfra suppresses polymerization or aggregation of serine-containing TPC6AΔ and other peptides in PBS. […] The mixtures were subjected to nonreducing sodium dodecyl sulfate polyacrylamide gel electrophoresis (SDS-PAGE). (A) Full-length Zfra or red-fluorescent TMR-Zfra blocked aggregation of Aβ42 (lanes 3, 5, and 7). […] The membrane was stained with antibody against Aβ. (B) Zfra4-10 and one of the TPC6AΔ peptides were resuspended in Milli-Q water or PBS and incubated for 24 hours at room temperature. Zfra4-10 suppressed the polymerization of serine-containing peptides. Reduction in intensity=[1−(Z.P)/(Z+P)]×100%, where Z=Zfra4-10, P=an indicated peptide, and Z.P=peptide mixture. […] Zfra4-10 suppressed polymerization of these peptides in PBS.
Zfra and serine-containing peptides were synthesized by Genemed Synthesis (San Antonio, Tex., USA), (1) Zfra1-31, […] (SEQ ID NO: 2); (2) Zfra4-10, RRSSSCK (SEQ ID NO: 1); (3) WWOX7-21, AGLDDTDSEDELPPG (SEQ ID NO: 3); (4) pS14-WWOX7-21, AGLDDTDpSEDELPPG (SEQ ID NO: 4); (5). […]

Row | Molecule | effect of proteasome inhibitor on degradation of zfrated proteins (MCF7 cell lysates; MCF7 lysates with Zfra, MG-132 50 μM) | results in similar experiments (melanoma-induced neurodegeneration, metastasis, pS14-WWOX) [1] | zfration and degradation of 80 and 22 kDa proteins (L929 cell lysates; 37° C., PBS) | zfration of 30-kDa protein (L929 cell lysates; 30 minutes) | self-polymerization [2] | degradation of zfrated proteins (MCF7 cell lysates; MCF7 lysates, with or without MG-132) | binding of cellular proteins (zfration) (MCF7 cell lysates; MCF7 lysates, complexes resisted SDS and β-mercaptoethanol) | aggregation of Aβ42 (Aβ42)
1 | CC(C)C[C@@H](C=O)NC(=O)[C@H](CC(C)C)NC(=O)[C@H](CC(C)C)NC(=O)OCc1ccccc1 [MG-132, reference compound] (Cbz-Leu-Leu-Leu-aldehyde) | did not block but enhanced |  |  |  |  |  |  | 
2 | MSSRRSSSCKYCEQDFRAHTQKNAAFPFLAN (MSSRRSSSCKYCEQDFRAHTQKNAATPFLAN; Synthesized pepetide) [Zfra1-31, full-length 31-amino-acid zinc finger-like protein that regulates apoptosis] |  | Comparable results | rapidly zfrated and then degraded in 30 minutes | became zfrated | underwent self-polymerization | degraded with time of incubation | Zfra-bound cellular proteins | blocked
